Data set [1] deals with SW48 human colorectal cancer cells (MSI-H cancer cells). Put plainly: SW48 cell viability, CellTiter-Glo, 120 hours (Example B). The note with it: Table 2; for CC50: Homo sapiens, SW48, 120 h, read-out: SW48 pCC50, SW48 cell viability, 120 hours incubation (converted).
Data set [2] has as its target T1, recombinant full-length WRN protein (1-1432) (Homo sapiens, UniProt Q14191).
T1 construct: recombinant full-length WRN protein (1-1432)
Put plainly: WRN unwinding activity, fluorogenic 384-well assay (Example A). It is filed as biochemical. The note with it: WRN unwinding activity, 4 hr; Table 2; read-out: 4 hr UNW pIC50 (converted). In short, it runs like this:
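200 pM enzyme (2× stock) preincubated with compound 4 h at ambient temperature, then 200 μM ATP and 12 nM quenched TAMRA-labelled dsDNA (2× stocks) added for 60 min; EDTA-quenched. Buffer 25 mM Tris pH 8.0, 5 mM NaCl, 2 mM MgCl2. Fluorescence at 525/598 nm; pIC50 from four-parameter fit.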

Experimental findings from patent US12662451B2, “Chemical compounds and uses thereof” (GLAXOSMITHKLINE INTELLECTUAL PROPERTY (NO.4) LIMITED, priority 2023, dated 2026) are described below.

Structures can show the parent of a compound that is named as a salt.

T1 sequence (Q14191 whole entry): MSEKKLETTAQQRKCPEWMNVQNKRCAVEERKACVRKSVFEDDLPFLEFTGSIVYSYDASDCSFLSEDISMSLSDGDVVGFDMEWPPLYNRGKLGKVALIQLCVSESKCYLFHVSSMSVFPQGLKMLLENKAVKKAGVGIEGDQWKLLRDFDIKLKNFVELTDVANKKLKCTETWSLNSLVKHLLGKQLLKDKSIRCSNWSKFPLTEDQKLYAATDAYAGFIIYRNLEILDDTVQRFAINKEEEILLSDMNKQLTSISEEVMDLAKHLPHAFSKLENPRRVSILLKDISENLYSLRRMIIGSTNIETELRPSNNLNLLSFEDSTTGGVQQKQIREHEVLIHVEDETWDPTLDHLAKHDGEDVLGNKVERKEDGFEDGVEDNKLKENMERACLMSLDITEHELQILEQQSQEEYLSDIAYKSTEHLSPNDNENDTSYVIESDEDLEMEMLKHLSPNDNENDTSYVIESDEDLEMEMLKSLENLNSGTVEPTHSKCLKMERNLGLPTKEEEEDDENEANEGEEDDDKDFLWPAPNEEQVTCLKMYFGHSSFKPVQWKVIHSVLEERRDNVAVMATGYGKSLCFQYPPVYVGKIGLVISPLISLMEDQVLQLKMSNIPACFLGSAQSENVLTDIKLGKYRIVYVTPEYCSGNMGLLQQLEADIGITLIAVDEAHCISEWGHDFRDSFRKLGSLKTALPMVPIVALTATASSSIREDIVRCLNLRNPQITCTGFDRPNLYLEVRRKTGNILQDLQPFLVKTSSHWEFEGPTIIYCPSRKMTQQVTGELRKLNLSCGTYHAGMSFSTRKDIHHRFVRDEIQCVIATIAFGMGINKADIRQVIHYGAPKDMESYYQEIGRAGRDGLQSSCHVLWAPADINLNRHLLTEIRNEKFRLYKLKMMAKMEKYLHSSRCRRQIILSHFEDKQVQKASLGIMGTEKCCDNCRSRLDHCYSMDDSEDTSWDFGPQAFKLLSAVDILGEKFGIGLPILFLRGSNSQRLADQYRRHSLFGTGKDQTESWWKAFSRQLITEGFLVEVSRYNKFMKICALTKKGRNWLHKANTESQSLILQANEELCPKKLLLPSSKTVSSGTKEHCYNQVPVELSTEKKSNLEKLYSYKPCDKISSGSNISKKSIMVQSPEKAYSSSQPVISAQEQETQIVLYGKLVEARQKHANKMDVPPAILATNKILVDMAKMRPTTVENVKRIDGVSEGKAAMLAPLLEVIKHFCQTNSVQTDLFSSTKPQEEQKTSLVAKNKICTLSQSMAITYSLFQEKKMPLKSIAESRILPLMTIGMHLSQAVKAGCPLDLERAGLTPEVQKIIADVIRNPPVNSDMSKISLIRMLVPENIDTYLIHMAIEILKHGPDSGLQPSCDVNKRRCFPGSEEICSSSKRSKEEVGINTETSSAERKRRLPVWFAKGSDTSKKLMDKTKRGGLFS

`Cc1nc2cc(S(=O)(=O)N3CCOc4cc([C@H]5CCC[C@@H](C(=O)Nc6ccc(C(F)(F)F)cc6F)[C@@H]5C(=O)O)ccc43)ccc2n1C` (single isomer, unassigned) [Example 241]: the CC50 in data set [1] is 1260 nM. The IC50 in data set [2] is 5.01 nM.

Regarding `Cc1nc2cc(S(=O)(=O)N(C)c3ccc([C@H]4CCC[C@@H](C(=O)Nc5ccc(C(F)(F)F)cc5F)[C@@H]4C(=O)O)cc3)cc([C@@H]3CCCNC3)c2n1C` (single isomer, unassigned) [Example 268, (1R,2R,6S)-2-((2-fluoro-4-(trifluoromethyl)phenyl)carbamoyl)-6-(4-((N,1,2-trimethyl-7-((S*)-piperidin-3-yl)-1H-benzo[d]imidazole)-5-sulfonamido)phenyl)cyclohexane-1-carboxylic acid hydrochloride], the CC50 in data set [1] is 15800 nM. Also, the IC50 in data set [2] is 0.794 nM.

As for `Cc1nc2cc(S(=O)(=O)N(C)c3ccc([C@@H]4C[C@H](C#N)C[C@H](C(=O)Nc5ccc(C(F)(F)F)cc5F)[C@H]4C(=O)O)cc3)ccc2n1C` (single isomer, unassigned) [Example 286], in data set [1], the CC50 was 12600 nM. The IC50 in data set [2] was 100 nM.

`Cc1nc2cc(S(=O)(=O)N(C)c3ccc([C@@H]4C[C@H](OCC5CC6CCC(C5)O6)C[C@H](C(=O)Nc5ccc(C(F)(F)F)cc5F)[C@H]4C(=O)O)cc3)ccc2n1C` (single isomer, unassigned) [Example 359]: the CC50 in data set [1] was 12600 nM. The IC50 in data set [2] was 1580 nM.

Turning to `Cc1nc2cc(S(=O)(=O)N(C)c3ccc([C@@H]4CCC[C@H](C(=O)Nc5ccc(C(F)(F)F)cc5F)[C@H]4C(=O)O)cc3F)ccc2n1C` (single isomer, unassigned) [Example 369], the CC50 in data set [1] is 12600 nM. Also, in data set [2], the IC50 was 631 nM.

In the case of `Cc1nc2cc(S(=O)(=O)N(C)c3ccc([C@H]4CCC[C@@H](C(=O)Nc5ccc(C(F)(F)F)cc5F)[C@@H]4C(=O)O)c(F)c3)ccc2n1C` (single isomer, unassigned) [Example 375], in data set [1] (SW48 cell viability, 120 hours incubation), the “SW48 pCC50” value is 4.7. Moreover, the IC50 in data set [2] was 100 nM.

For `Cc1nc2cc(S(=O)(=O)N(C)c3ccc([C@@H]4C[C@H](OC(F)F)C[C@H](C(=O)Nc5ccc(C(F)(F)F)cc5F)[C@H]4C(=O)O)cc3)ccc2n1C` (stereo in doubt) [Example 283, rel-(1R,2R,4R,6S)-4-(difluoromethoxy)-2-((2-fluoro-4-(trifluoromethyl)phenyl)carbamoyl)-6-(4-((N,1,2-trimethyl-1H-benzo[d]imidazole)-5-sulfonamido)phenyl)cyclohexane-1-carboxylic acid], the CC50 in data set [1] is 20000 nM. In addition, the IC50 in data set [2] was 631 nM.

For `CC(=O)N(C)[C@@H]1C[C@H](C(=O)Nc2ccc(C(F)(F)F)cc2F)[C@@H](C(=O)O)[C@H](c2ccc(N(C)S(=O)(=O)c3ccc4c(c3)nc(C)n4C)cc2)C1` (stereo in doubt) [Example 291, rel-(1R,2R,4R,6S)-2-((2-fluoro-4-(trifluoromethyl)phenyl)carbamoyl)-4-(N-methylacetamido)-6-(4-((N,1,2-trimethyl-1H-benzo[d]imidazole)-5-sulfonamido)phenyl)cyclohexane-1-carboxylic acid], in data set [1], the CC50 is 12600 nM. Further, in data set [2], the IC50 was 31.6 nM.

For `Cc1nc2cc(S(=O)(=O)N(C)c3ccc([C@H]4C[C@H](N)C[C@@H](C(=O)Nc5ccc(C(F)(F)F)cc5F)[C@@H]4C(=O)O)cc3)ccc2n1C` (stereo in doubt) [Example 300, rel-(1R,2R,4S,6S)-4-amino-2-((2-fluoro-4-(trifluoromethyl)phenyl)carbamoyl)-6-(4-((N,1,2-trimethyl-1H-benzo[d]imidazole)-5-sulfonamido)phenyl)cyclohexane-1-carboxylic acid], the CC50 in data set [1] was 12600 nM. The IC50 in data set [2] was 1.58 nM.

As for `Cc1nc2cc(S(=O)(=O)N(C)c3ccc([C@@H]4C[C@@H](N5CCC(F)(F)C5)C[C@H](C(=O)Nc5ccc(C(F)(F)F)cc5F)[C@H]4C(=O)O)cc3)ccc2n1C` (stereo in doubt) [Example 303, rel-(1R,2R,4S,6S)-4-(3,3-difluoropyrrolidin-1-yl)-2-((2-fluoro-4-(trifluoromethyl)phenyl)carbamoyl)-6-(4-((N,1,2-trimethyl-1H-benzo[d]imidazole)-5-sulfonamido)phenyl)cyclohexane-1-carboxylic acid], the CC50 in data set [1] is 25100 nM. In data set [2], the IC50 is 3980 nM.

Consider `Cc1nc2cc(S(=O)(=O)N(C)c3ccc([C@H]4C[C@H](N5CCC(F)(F)C5)C[C@@H](C(=O)Nc5ccc(C(F)(F)F)cc5F)[C@@H]4C(=O)O)cc3)ccc2n1C` (stereo in doubt) [Example 304, rel-(1R,2R,4S,6S)-4-(3,3-difluoropyrrolidin-1-yl)-2-((2-fluoro-4-(trifluoromethyl)phenyl)carbamoyl)-6-(4-((N,1,2-trimethyl-1H-benzo[d]imidazole)-5-sulfonamido)phenyl)cyclohexane-1-carboxylic acid], for which, in data set [1], the CC50 is 12600 nM. Moreover, the IC50 in data set [2] is 15.8 nM.

Take `Cc1nc2cc(S(=O)(=O)N(C)c3ccc([C@@H]4C[C@H](OC(C)C)C[C@H](C(=O)Nc5ccc(C(F)(F)F)cc5F)[C@H]4C(=O)O)cc3)ccc2n1C` (stereo in doubt) [Example 312, rel-(1R,2R,4R,6S)-2-((2-fluoro-4-(trifluoromethyl)phenyl)carbamoyl)-4-isopropoxy-6-(4-((N,1,2-trimethyl-1H-benzo[d]imidazole)-5-sulfonamido)phenyl)cyclohexane-1-carboxylic acid]: the CC50 in data set [1] is 12600 nM. Moreover, the IC50 in data set [2] is 158 nM.

Consider `Cc1nc2cc(S(=O)(=O)N(C)c3ccc([C@@H]4C[C@H](OCC5CC5)C[C@H](C(=O)Nc5ccc(C(F)(F)F)cc5F)[C@H]4C(=O)O)cc3)ccc2n1C` (stereo in doubt) [Example 313, rel-(1R,2R,4R,6S)-4-(cyclopropylmethoxy)-2-((2-fluoro-4-(trifluoromethyl)phenyl)carbamoyl)-6-(4-((N,1,2-trimethyl-1H-benzo[d]imidazole)-5-sulfonamido)phenyl)cyclohexane-1-carboxylic acid], for which the CC50 in data set [1] was 20000 nM. Moreover, the IC50 in data set [2] was 251 nM.

With `Cc1nc2cc(S(=O)(=O)N(C)c3ccc([C@@H]4C[C@H](OC[C@H]5CCOC5)C[C@H](C(=O)Nc5ccc(C(F)(F)F)cc5F)[C@H]4C(=O)O)cc3)ccc2n1C` (stereo in doubt) [Example 318, (1R*,2R*,4R*,6S*)-2-((2-fluoro-4-(trifluoromethyl)phenyl)carbamoyl)-4-(((S)-tetrahydrofuran-3-yl)methoxy)-6-(4-((N,1,2-trimethyl-1H-benzo[d]imidazole)-5-sulfonamido)phenyl)cyclohexane-1-carboxylic acid], in data set [1], the CC50 is 12600 nM. Besides, in data set [2], the IC50 is 200 nM.

For the compound `Cc1nc2cc(S(=O)(=O)N(C)c3ccc([C@@H]4C[C@H](OC[C@@H]5CCOC5)C[C@H](C(=O)Nc5ccc(C(F)(F)F)cc5F)[C@H]4C(=O)O)cc3)ccc2n1C` (stereo in doubt) [Example 319, (1R*,2R*,4R*,6S*)-2-((2-fluoro-4-(trifluoromethyl)phenyl)carbamoyl)-4-(((R)-tetrahydrofuran-3-yl)methoxy)-6-(4-((N,1,2-trimethyl-1H-benzo[d]imidazole)-5-sulfonamido)phenyl)cyclohexane-1-carboxylic acid], the CC50 in data set [1] was 12600 nM. The IC50 in data set [2] was 316 nM.

`Cc1nc2cc(S(=O)(=O)N(C)c3ccc([C@@H]4C[C@H](OC[C@H]5COCCO5)C[C@H](C(=O)Nc5ccc(C(F)(F)F)cc5F)[C@H]4C(=O)O)cc3)ccc2n1C` (stereo in doubt) [Example 328, (1R*,2R*,4R*,6S*)-4-(((R)-1,4-dioxan-2-yl)methoxy)-2-((2-fluoro-4-(trifluoromethyl)phenyl)carbamoyl)-6-(4-((N,1,2-trimethyl-1H-benzo[d]imidazole)-5-sulfonamido)phenyl)cyclohexane-1-carboxylic acid]: the CC50 in data set [1] is 15800 nM. The IC50 in data set [2] is 126 nM.

Regarding `Cc1nc2cc(S(=O)(=O)N(C)c3ccc([C@@H]4C[C@H](N5CCC[C@@H](F)C5)C[C@H](C(=O)Nc5ccc(C(F)(F)F)cc5F)[C@H]4C(=O)O)cc3)ccc2n1C` (stereo in doubt) [Example 345, rel-(1R*,2R*,4R*,6S*)-2-((2-fluoro-4-(trifluoromethyl)phenyl)carbamoyl)-4-((R)-3-fluoropiperidin-1-yl)-6-(4-((N,1,2-trimethyl-1H-benzo[d]imidazole)-5-sulfonamido)phenyl)cyclohexane-1-carboxylic acid], the CC50 in data set [1] was 12600 nM. Further, the IC50 in data set [2] is 398 nM.

`Cc1nc2cc(S(=O)(=O)N(C)c3ccc([C@@H]4C[C@H](OCC5CCOCC5)C[C@H](C(=O)Nc5ccc(C(F)(F)F)cc5F)[C@H]4C(=O)O)cc3)ccc2n1C` (stereo in doubt) [Example 354, rel-(1R,2R,4R,6S)-2-((2-fluoro-4-(trifluoromethyl)phenyl)carbamoyl)-4-((tetrahydro-2H-pyran-4-yl)methoxy)-6-(4-((N,1,2-trimethyl-1H-benzo[d]imidazole)-5-sulfonamido)phenyl)cyclohexane-1-carboxylic acid]: the CC50 in data set [1] is 20000 nM. The IC50 in data set [2] was 1580 nM.

In the case of `Cc1nc2cc(S(=O)(=O)N(C)c3ccc([C@@H]4C[C@H](OCC5(C)COC5)C[C@H](C(=O)Nc5ccc(C(F)(F)F)cc5F)[C@H]4C(=O)O)cc3)ccc2n1C` (stereo in doubt) [Example 366, rel-(1R,2R,4R,6S)-2-((2-fluoro-4-(trifluoromethyl)phenyl)carbamoyl)-4-((3-methyloxetan-3-yl)methoxy)-6-(4-((N,1,2-trimethyl-1H-benzo[d]imidazole)-5-sulfonamido)phenyl)cyclohexane-1-carboxylic acid], the CC50 in data set [1] is 15800 nM. Also, the IC50 in data set [2] was 126 nM.
